“Also recorded” adds a separate entry of the source.
Tests used:
IL-2 = IL-2 secretion in LPS-stimulated THP-1 cells; assay type: cell-based, human; conditions: cells could not be stimulated to secrete IL-2
IL-10 = IL-10 secretion (ELISA) in THP-1 cells; assay type: cell-based, human
Text: Viability of cells was examined by trypan blue exception assay.

CDK2 = biological target: T1, CDK2 (Homo sapiens, UniProt P24941); experiment: Cyclin dependent kinase activity in THP-1 cells (immunoprecipitation, histone H1 phosphorylation); assay type: cell-based; conditions: 24 h
T1 construct: endogenous in cells; host or cells: THP-1
Method: (§1) 2) Effects of Meisoindigo and/or NATURA on activity of cyclin dependent kinases (CDK) in THP-1 cells (99): THP-1 cells grown exponentially were exposed to […] of Meisoindigo or NATURA for 24 hr, respectively.
(§2) The cells were harvested, washed, and total proteins extracted as described previously (100). One hundred μg of the proteins were immuno-precipitated using antibodies against either cdk2, cdk4/6 or cyclin D1 overnight at 4° C. in the presence of a cocktail of protease inhibitors. The immuno-precipitates were washed 4 times with protein extraction buffer and once with kinase assay buffer, and reacted with […] histone H1 in the presence of [γ-^32P]-ATP (10 μCi/10 μM). The phosphorylated histone H1 (represent cdk activity) was measured by scintillation counting or by SDS-polyacrylaimde gel electrophoresis (101, 102).

cdk4/6 = experiment: as above; assay type: cell-based, human; conditions: 31.25 and 62.5 nM, 24 h
Method: as §1, §2

IL-6 mRNA = experiment: IL-6 transcription (real time PCR) in LPS-stimulated THP-1 cells; assay type: cell-based, human; conditions: 1 μM, 1 μg/ml LPS, 24 h
Method: Real Time PCR: The effect of Meisoindigo on the transcription of IL-6 (RNA levels) was determined by a technique of real time polymerase chain reaction (real time PCR). Total RNA was extracted using a Qiagen […] the HPRT gene was used as internal control. Human monocytic THP-1 cells at exponential growth phase were exposed to 1 μg/ml of LPS, 1 μM of Meisoindigo, or 1 μg/ml of LPS plus 1 μM of Meisoindigo for 24 hours. The cells were then harvested, washed and total RNA extracted for real time PCR assay. Total RNA (300 ng) was treated with DNase I (Promega, Madison, Wis.), and SuperScript II (Invitrogen, Carlsbad, Calif.) and oligo(dT) were used for reverse transcription according to the manufacturers' instructions. Real-time PCR reactions were performed in a 25-μL volume containing diluted cDNA, Sybr Green PCR Master Mix (Applied Biosystems), and 2.5 μM each IL-6 gene-specific primer: […] and […] An ABI SDS7700 analyzer (Applied Biosystems) was used at 50° C. for 2 minutes and 95° C. for 10 minutes, followed by 40 cycles at 95° C. for 15 seconds and 60° C. for 1 minute. Test cDNA results were normalized to HPRT internal control measured on the same plate. After cycling, the specificity of amplification was validated by the generation of a melting curve through slow denaturation of the PCR products and then by gel electrophoresis.

TNF-α = TNF-α secretion (ELISA) in LPS-stimulated THP-1 cells; assay type: cell-based, human
Method: Methods: The cells were stimulated with or without […] of lipopolysaccharide (LPS, Sigma), and exposed for 24 hours to different concentrations of Meisoindigo (from 31.25 nM to 16,000 nM). Viability of cells was examined under microscope after trypan blue staining. Protein levels of IL-1β secreted into the culture media by the cells were then measured by ELISA and calculated from its standard curve using an assay Kit from R&D Systems according to instructions provided by the supplier. The method was established and validated by a good standard curve obtained. An example of the standard curve is shown in FIG. 2, panel A. The representative derivative Meisoindigo was used. The cell line and the procedure of ELISA to measure secretion of TNF-α were the same as described in Example 1, except the standard TNF-α protein was used to establish a standard curve for the calculation of the protein secreted in the medium by the cells (LPS-stimulated or non-stimulated cells in the presence or absence of Meisoindigo).

IL-1β = IL-1β secretion (ELISA) in LPS-stimulated THP-1 cells; assay type: cell-based, human
Method: It was prepared in a solution of dimethyl sulfoxide (DMSO), and stored under −20° C. for the experiments in vitro. Human monocytic cell line, THP-1 (90), was purchased from ATCC. The cells were maintained according to the supplier's instructions. Approximately 1×10^5 cells/ml were cultured at 37° C., 5% CO2 for 24 hours in Modified RPMI-1640 Medium (Invitrogen) supplemented with 10% FBS.
Statistical Analysis: All data were expressed as a mean±SD. Statistical significance of any difference between the control (LPS) and experimental groups was determined by the Student's t-test. P values between the 2 groups must be at least smaller than 0.05 to be considered statistically significant.
1) Effects of Meisoindigo and NATURA on the expression/secretion of cytokines IL-1β, IL-6, IL-10: The human monocytic THP-1 cells grown exponentially were stimulated with or without 1 μM of lipopolysaccharide (LPS, Sigma), and exposed for 24 hours to different concentrations of Meisoindigo and NATURA (from 31.25 nM and 62.5 nM), respectively. Viability of cells was examined by trypan blue exception assay.

THP-1 cells = experiment: Viability of THP-1 cells by trypan blue staining; assay type: cell-based, human; conditions: up to 8 μM
Method: Methods: The cells were stimulated with or without […] of lipopolysaccharide (LPS, Sigma), and exposed for 24 hours to different concentrations of Meisoindigo (from 31.25 nM to 16,000 nM). Viability of cells was examined under microscope after trypan blue staining. Protein levels of IL-1β secreted into the culture media by the cells were then measured by ELISA and calculated from its standard curve using an assay Kit from R&D Systems according to instructions provided by the supplier. The method was established and validated by a good standard curve obtained.

[1] = system: chronic myeloid leukemia (CML); conditions: cited from earlier work
IL-15 = IL-15 real time PCR in LPS-stimulated THP-1 cells; assay type: cell-based, human; conditions: data not shown
[2] = LPS-stimulated THP-1 cells, LPS alone 100.00

For `CN1C(=O)/C(=C2/C(=O)Nc3ccccc32)c2ccccc21` [Meisoindigo], the “effect on IL-2 secretion” value (IL-2) was “no effects were observed”, the “increase in the IL-10 secretion” value (IL-10; 0.0625 μM, THP-1 cells) was “Approximately 60%” and the “increase of IL-10 secretion at maximal stimulation” value (IL-10; 62.5 nM, LPS-treated THP-1 cells, 24 h) was “approximately 2 fold”. For the same compound, the “effect on IL-10 production” value (IL-10; 31.25 and 62.5 nM, 24 h) was “promoted production”, the “IL-10 (Stimulation), Percentage of Maximal Response Without Cytotoxicity” value (IL-10; LPS-stimulated THP-1 cells, LPS alone −18.27) was 201.97 ± 11.2% and the “elevation of LPS-suppressed IL-10” value (IL-10; similar concentrations (as low as 31.25 nM), FIG. 6A) was roughly 2 fold. The “partial inhibition of CDK activity” value (CDK2; 1.5 μM, FIG. 6B) was 23%, the “inhibition of CDK2 activity” value (CDK2; 31.25 and 62.50 nM) was “failed to inhibit; also recorded: no inhibitory effect” and the “inhibition of cyclin dependent kinase 4 and 6 activity” value (cdk4/6) was “failed to inhibit”. For the same compound, the “LPS-induced IL-6 transcription” value (IL-6 mRNA) was “completely suppressed; also recorded: significantly inhibits”, the “reduction of TNF-α secretion” value (TNF-α; 2.0 μM, 24 h) was “Approximately 50%” and the “inhibition of TNF-α secretion” value (TNF-α; 16 μM) was “complete inhibition”. For the same compound, the “effect on TNF-α secretion over the concentration series” value (TNF-α; 0.031 to 16 μM, 24 h) was “effectively inhibited; also recorded: concentration-dependent inhibition”, the “TNF-α (Inhibition), Percentage of Maximal Response Without Cytotoxicity” value (TNF-α; [2]) was 49.20 ± 3.37% and the “further reduction of TNF-α secretion on increasing the concentration” value (TNF-α; up to 8 μM) was “did not cause further reduction”. For the same compound, the “reduction of the LPS mediated IL-1β secretion” value (IL-1β; 31.25 nM, 24 h, LPS-stimulated THP-1 cells) was “over 50%”, the “IL-1β (Inhibition), Percentage of Maximal Response Without Cytotoxicity” value (IL-1β; [2]) was 48.76 ± 3.68% and the “effect on IL-1β production” value (IL-1β; as low as 31.25 nM (31.25 and 62.5 nM in FIG. 6), 24 h) was “significantly inhibit”. The “further reduction of IL-1β secretion on increasing the concentration” value (IL-1β; up to 8 μM) was “did not result in further reduction”, the cell deaths (THP-1 cells) was “no cell deaths were observed” and the side effects reported ([1]; 150 mg per day, China) was “very minor side effects”. For the same compound, the “total dosage needed to achieve the maximal remission of CML” value [1] was 8696 mg and the “inhibition on IL-15 (real time PCR)” value (IL-15) was “moderate inhibition”.

Source: US20050154046A1, “Methods of treating an inflammatory-related disease” (priority 2004, published 2005)
